Results published in patent US8921383B2, “Thiazolopyrimidine compounds” (Hoffmann-La Roche Inc., priority 2011, dated 2014).

Molecular target: T1, purified recombinant human SYK360-635 (Homo sapiens, UniProt P43405)
T1 construct: truncated construct of Spleen Tyrosine Kinase aa 360-635; GST; made in house
Experiment: SYK kinase assay: 33P γATP incorporation into biotinylated peptide substrate, IC50 determination
Assay type: biochemical
Conditions: SYK 0.5 nM, ATP 20 μM, DYE peptide 5 μM, 30° C. 15 min; read-out: IC50 h-syk-gst-sf9-c (inactive-dephosphorylated)
Experimental: Determination of IC50 of Spleen Tyrosine Kinase (SYK) Inhibition:
SYK kinase assay is a standard kinase assay adapted to a 96 well plate format. This assay is performed in 96-well format for IC50 determination with […] which represented 10 half log dilutions and a 40 μL reaction volume. The assay measures the incorporation of radiolabeled ^33P γATP into an N-terminally biotinylated peptide substrate, derived from naturally occurring phosphoacceptor consensus sequence (Biotin-11aa DY*E). Phosphorylated products were detected upon termination of reactions with EDTA and the addition of Streptavidin coated beads.
Assay plates: 96-well MultiScreen 0.65 um filter plates (Millipore Cat. No.: MADVNOB10)
BSA: Bovine Serum Albumin Fraction V, fatty acid free (Roche Diagnostics GmbH, Cat. No. 9100221) diluted to a final concentration of 0.1%
Assay Dilution Buffer (ADB): 50 mM HEPES, 0.1 mM EGTA, 0.1 mM Na Vanadate, 0.1 mM β-glycerophosphate, 10 mM MgCl2, 1 mM DTT, 0.1% BSA, pH 7.5
Bead wash buffer: 10 g/L PBS (Phosphate buffered saline) with 2M NaCl+1% phosphoric acid.
DMSO and the mixture was incubated for 10 min at RT.
The kinase reaction was initiated by the addition of 10 μL 4× substrate cocktail containing the DYE peptide substrate [0 or 5 μM], ATP [20 μM] and ^33PγATP [2 μCi/r×n]. After incubation at 30° C. for 15 min, the reaction was terminated by the transfer of 25 μL of the reaction sample to a 96 well 0.65 μm Millipore MADVNOB membrane/plate containing 200 μL 5 mM EDTA and 20% Streptavidine coated beads in PBS.
After the last wash membrane/plates were transferred to an adaptor plate, heat dried for 15 min at 60° C., and 50 μL scintillation cocktail was added to each well and 4 h later the amount of radioactivity was counted in a top counter.

Structure (SMILES) | IC50
COc1ccc(Nc2nc(-c3cccc(C(=O)Nc4ccc(C(=O)O)c(OC)c4)c3)nc3scnc23)cc1OC [Compound I-16, 4-(3-(7-(3,4-Dimethoxyphenylamino)thiazolo[5,4-d]pyrimidin-5-yl)benzamido)-2-methoxybenzoic acid] | 12 nM
COc1ccc(Nc2nc(N3CCCC(C(=O)Nc4ccc5c(c4)C(=O)NC5=O)C3)nc3scnc23)cc1OC (stereo not drawn) [Compound I-50, 1-(7-(3,4-Dimethoxyphenylamino)thiazolo[5,4-d]pyrimidin-5-yl)-N-(1,3-dioxoisoindolin-5-yl)piperidine-3-carboxamide] | 1920 nM
COc1ccc(Nc2nc(-c3ccc(C(=O)NCCc4cc[nH]c(=O)c4)cc3)nc3scnc23)cc1OC [Compound I-23, 4-(7-(3,4-Dimethoxyphenylamino)thiazolo[5,4-d]pyrimidin-5-yl)-N-(2-(2-oxo-1,2-dihydropyridin-4-yl)ethyl)benzamide] | 930 nM
COc1ccc(Nc2nc(N3CCCC(C(=O)Nc4ccc5c(c4)CC(=O)N5)C3)nc3scnc23)cc1OC (stereo not drawn) [Compound I-40, 1-(7-(3,4-Dimethoxyphenylamino)thiazolo[5,4-d]pyrimidin-5-yl)-N-(2-oxoindolin-5-yl)piperidine-3-carboxamide] | 5410 nM
COc1ccc(Nc2nc(-c3cccc(CNc4ccc(C(=O)OC(C)(C)C)cc4)c3)nc3scnc23)cc1OC [Compound I-29, tert-Butyl 4-(3-(7-(3,4-dimethoxyphenylamino)thiazolo[5,4-d]pyrimidin-5-yl)benzylamino)benzoate] | 1490 nM
COc1ccc(Nc2nc(-c3ccc(C(N)=O)cc3)nc3scnc23)cc1OC [Compound I-64, 4-[7-(3,4-Dimethoxy-phenylamino)-thiazolo[5,4-d]pyrimidin-5-yl]-benzamide] | 113 nM
COC(=O)c1cccc(-c2nc(Nc3cccc(C(F)(F)F)c3)c3ncsc3n2)c1 [Compound I-56, Methyl 3-(7-(3-(trifluoromethyl)phenylamino)thiazolo[5,4-d]pyrimidin-5-yl)benzoate] | 3180 nM
COc1ccc(Nc2nc(-c3cccc(/C=C/c4ccc(C(=O)O)cc4)c3)nc3scnc23)cc1OC [Compound I-32, (E)-4-(3-(7-(3,4-Dimethoxyphenylamino)thiazolo[5,4-d]pyrimidin-5-yl)styryl)benzoic acid] | 60 nM
COC(=O)c1cccc(-c2nc(Nc3cccc(S(C)(=O)=O)c3)c3ncsc3n2)c1 [Compound I-26, Methyl 3-(7-(3-(methylsulfonyl)phenylamino)thiazolo[5,4-d]pyrimidin-5-yl)benzoate] | 2060 nM
COc1ccc(Nc2nc(N3CCCC(C(=O)Nc4ccc5[nH]ncc5c4)C3)nc3scnc23)cc1OC (stereo not drawn) [Compound I-41, 1-(7-(3,4-Dimethoxyphenylamino)thiazolo[5,4-d]pyrimidin-5-yl)-N-(1H-indazol-5-yl)piperidine-3-carboxamide] | 1690 nM
COc1ccc(Nc2nc(N3CCC(NC(=O)c4ccc(C(=O)O)cc4)C3)nc3scnc23)nc1OC (stereo not drawn) [Compound I-55, 4-(1-(7-(5,6-Dimethoxypyridin-2-ylamino)thiazolo[5,4-d]pyrimidin-5-yl)pyrrolidin-3-ylcarbamoyl)benzoic acid] | 6150 nM
COc1ccc(Nc2nc(-c3cccc(C(=O)Nc4ccc5cn[nH]c5c4)c3)nc3scnc23)cc1OC [Compound I-19, 3-[7-(3,4-Dimethoxy-phenylamino)-thiazolo[5,4-d]pyrimidin-5-yl]-N-(1H-indazol-6-yl)-benzamide] | 56 nM
O=C(O)c1cccc(-c2nc(Nc3cccc(C(F)(F)F)c3)c3ncsc3n2)c1 [Compound I-57, 3-[7-(3-Trifluoromethyl-phenylamino)-thiazolo[5,4-d]pyrimidin-5-yl]-benzoic acid] | 4250 nM
COc1ccc(Nc2nc(N3CCC(NC(=O)c4ccc(N)nc4)C3)nc3scnc23)cc1OC (stereo not drawn) [Compound I-13, 6-Amino-N-{1-[7-(3,4-dimethoxy-phenylamino)-thiazolo[5,4-d]pyrimidin-5-yl]-pyrrolidin-3-yl}-nicotinamide] | 566 nM
COc1ccc(Nc2nc(-c3ccc(C(=O)NCCc4ccncc4)cc3)nc3scnc23)cc1OC [Compound I-20, 4-[7-(3,4-Dimethoxy-phenylamino)-thiazolo[5,4-d]pyrimidin-5-yl]-N-(2-pyridin-4-yl-ethyl)-benzamide] | 566 nM
COc1cc(Nc2nc(-c3cccc(C(N)=O)c3)nc3scnc23)cc(OC)c1OC [Compound I-58, 3-[7-(3,4,5-Trimethoxy-phenylamino)-thiazolo[5,4-d]pyrimidin-5-yl]-benzamide] | 2250 nM
COc1ccc(Nc2nc(N3CCCC(C(=O)Nc4ccc(C(=O)O)c(OC)c4)C3)nc3scnc23)cc1OC (stereo not drawn) [Compound I-43, 4-({1-[7-(3,4-Dimethoxy-phenylamino)-thiazolo[5,4-d]pyrimidin-5-yl]-piperidine-3-carbonyl}-amino)-2-methoxy-benzoic acid] | 164 nM
COc1ccc(Nc2nc(-c3cccc(CNc4ccc(C(=O)O)cc4)c3)nc3scnc23)cc1OC [Compound I-30, 4-(3-(7-(3,4-Dimethoxyphenylamino)thiazolo[5,4-d]pyrimidin-5-yl)benzylamino)benzoic acid] | 18 nM
COc1ccc(Nc2nc(N3CCCC(C(=O)Nc4ccc(-c5nnc(S)o5)cc4)C3)nc3scnc23)cc1OC (stereo not drawn) [Compound I-51, 1-(7-(3,4-Dimethoxyphenylamino)thiazolo[5,4-d]pyrimidin-5-yl)-N-(4-(5-mercapto-1,3,4-oxadiazol-2-yl)phenyl)piperidine-3-carboxamide] | 156 nM
COc1ccc(Nc2nc(N3CCCC(C(=O)NC4CNC(=O)C4)C3)nc3scnc23)cc1OC (stereo not drawn) [Compound I-48, 1-(7-(3,4-Dimethoxyphenylamino)thiazolo[5,4-d]pyrimidin-5-yl)-N-(5-oxopyrrolidin-3-yl)piperidine-3-carboxamide] | 4210 nM
COc1ccc(Nc2nc(N3CCCC(C(=O)Nc4ccc(-c5noc(=O)[nH]5)cc4)C3)nc3scnc23)cc1OC (stereo not drawn) [Compound I-44, 1-(7-(3,4-Dimethoxyphenylamino)thiazolo[5,4-d]pyrimidin-5-yl)-N-(4-(5-oxo-4,5-dihydro-1,2,4-oxadiazol-3-yl)phenyl)piperidine-3-carboxamide] | 136 nM
CNC(=O)c1ccc(NC(=O)c2cccc(-c3nc(Nc4ccc(OC)c(OC)c4)c4ncsc4n3)c2)cc1 [Compound I-3, 3-(7-(3,4-Dimethoxyphenylamino)thiazolo[5,4-d]pyrimidin-5-yl)-N-(4-(methylcarbamoyl)phenyl)benzamide] | 71 nM
COCC1CCCN1c1cccc(Nc2nc(-c3cccc(C(=O)O)c3)nc3scnc23)c1 (stereo not drawn) [Compound I-28, 3-{7-[3-(2-Methoxymethyl-pyrrolidin-1-yl)-phenylamino]-thiazolo[5,4-d]pyrimidin-5-yl}-benzoic acid] | 3130 nM
CS(=O)(=O)c1cccc(Nc2nc(-c3cccc(C(=O)O)c3)nc3scnc23)c1 [Compound I-27, 3-[7-(3-Methanesulfonyl-phenylamino)-thiazolo[5,4-d]pyrimidin-5-yl]-benzoic acid] | 4610 nM
COc1ccc(Nc2nc(N3CCC(C(=O)NCCc4cc[nH]c(=O)c4)CC3)nc3scnc23)cc1OC [Compound I-22, 1-(7-(3,4-Dimethoxyphenylamino)thiazolo[5,4-d]pyrimidin-5-yl)-N-(2-(2-oxo-1,2-dihydropyridin-4-yl)ethyl)piperidine-4-carboxamide] | 4880 nM
COc1ccc(Nc2nc(-c3ccc(C(=O)NCCN(C)C)cc3)nc3scnc23)cc1OC [Compound I-66, 4-(7-(3,4-Dimethoxyphenylamino)thiazolo[5,4-d]pyrimidin-5-yl)-N-(2-(dimethylamino)ethyl)benzamide] | 278 nM
COc1ccc(Nc2nc(N3CCC(NC(=O)c4cnccn4)C3)nc3scnc23)cc1OC (stereo not drawn) [Compound I-12, N-(1-(7-(3,4-Dimethoxyphenylamino)thiazolo[5,4-d]pyrimidin-5-yl)pyrrolidin-3-yl)pyrazine-2-carboxamide] | 933 nM
COc1cc(Nc2nc(-c3ccc(C(N)=O)cc3)nc3scnc23)cc(N2CCC[C@@H]2C)c1 [Compound I-60, 4-{7-[3-Methoxy-5-((S)-2-methyl-pyrrolidin-1-yl)-phenylamino]-thiazolo[5,4-d]pyrimidin-5-yl}-benzamide] | 1110 nM
COc1ccc(Nc2nc(N3CCCC(C(=O)Nc4ccc5cn[nH]c5c4)C3)nc3scnc23)cc1OC (stereo not drawn) [Compound I-45, 1-(7-(3,4-Dimethoxyphenylamino)thiazolo[5,4-d]pyrimidin-5-yl)-N-(1H-indazol-6-yl)piperidine-3-carboxamide] | 922 nM
COc1ccc(Nc2nc(N3CCC(NC(=O)c4ccc(C(=O)O)c(O)c4)C3)nc3scnc23)cc1OC (stereo not drawn) [Compound I-9, 4-(1-(7-(3,4-Dimethoxyphenylamino)thiazolo[5,4-d]pyrimidin-5-yl)pyrrolidin-3-ylcarbamoyl)-2-hydroxybenzoic acid] | 40 nM
